The results in this text go back to US6900194B1, “Use of substituted 4-biarylbutyric and 5-biarylpentanoic acid derivatives as matrix metalloprotease inhibitors for the treatment of respiratory diseases” (Bayer Aktiengesellschaft, priority 1998, dated 2005).

For orientation: Ki means the dissociation constant of the complex between target and ligand, obtained from inhibition or displacement. One may read the IC50 as the point on the concentration scale where inhibition reaches its midpoint.

The target in one assay is T1, MMP-9 (Gelatinase B) (Homo sapiens, UniProt P14780).
T1 construct: polymorphonuclear leukocytes (PMN) preparations are isolated as described above from 3 or more units of freshly drawn whole blood; from tissue; host or cells: polymorphonuclear leukocytes from whole blood, stimulated with PMA; supernatant purified
T1 sequence (P14780 94-707): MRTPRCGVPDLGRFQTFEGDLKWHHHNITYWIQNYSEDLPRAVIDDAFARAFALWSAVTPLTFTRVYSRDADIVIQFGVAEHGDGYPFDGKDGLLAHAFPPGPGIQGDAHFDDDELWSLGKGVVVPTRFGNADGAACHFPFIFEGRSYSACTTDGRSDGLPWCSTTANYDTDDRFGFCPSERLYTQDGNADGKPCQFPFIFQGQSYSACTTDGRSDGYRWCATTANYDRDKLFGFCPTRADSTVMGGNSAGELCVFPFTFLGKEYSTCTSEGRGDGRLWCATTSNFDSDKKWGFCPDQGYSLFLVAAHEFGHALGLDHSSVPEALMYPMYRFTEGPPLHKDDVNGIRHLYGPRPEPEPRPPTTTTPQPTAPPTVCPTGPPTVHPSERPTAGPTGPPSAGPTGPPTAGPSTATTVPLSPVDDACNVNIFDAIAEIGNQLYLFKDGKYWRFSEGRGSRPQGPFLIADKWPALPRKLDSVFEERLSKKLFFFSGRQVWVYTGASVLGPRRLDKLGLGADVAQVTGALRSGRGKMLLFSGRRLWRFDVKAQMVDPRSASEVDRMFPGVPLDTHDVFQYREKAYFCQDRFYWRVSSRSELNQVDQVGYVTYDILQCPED
The experiment in a line: P218 quenched fluorescence assay, MMP-9. Format: biochemical. The conditions noted are these: read-out: Potency Ki vs. MMP-9. From the text:
(§1) P218 Quenched Fluorescence Assay for MMP Inhibition:
(§2) This assay is adapted from the one described by Knight et al., FEBS Letters, 296, 263-266 (1992) for MMP-3 and a related substrate. The rate of hydrolysis of the synthetic substrate H-MCA-Pro-Lys-Pro-Leu-Ala-Leu-DPA-Ala-Arg-NH2 (P218) by the respective MMPs is monitored fluorometrically, using an excitation wavelength of 340 nm and an emission wavelength of 395 nm, in the presence or absence of the test compounds. The substrate is made up initially in 100% DMSO to a concentration of 1×10^−2 M, then diluted in assay buffer to a final concentration of 20 μM. […] The total assay volume in a 96 well microtitre plate is 150 μl, Cleavage of the substrate between the Leu-Ala residues allows the fluorescence of the MCA group to be detected on a fluorometer (Cytofluor II) following excitation at 340 nm and emission at 395 nm. Change in fluorescence is continually monitored for a 40 min period.
(§3) The Ki's are calculated using the method described by Williams and Morrison, Methods in Enzymology, 63, 437-467 (1979) to measure Ki apparent for tight binding inhibitors, and is summarised as follows: [I]0/(1−vi/v0)=Ki apparent ×vi/v0+[E]0 [I]0 and [E]0 are inhibitor and enzyme concentrations, and vi/v0 are reaction velocities with/without inhibitor. […]
(§4) IC50's are determined at each enzyme concentration using Xlfit software. […]

Assay [1] deals with T2, MMP-12 (Macrophage Elastase) (Homo sapiens, UniProt P39900).
T2 construct: made in house; host or cells: E. coli BL21 (DE3)
T2 sequence (P39900 106-470): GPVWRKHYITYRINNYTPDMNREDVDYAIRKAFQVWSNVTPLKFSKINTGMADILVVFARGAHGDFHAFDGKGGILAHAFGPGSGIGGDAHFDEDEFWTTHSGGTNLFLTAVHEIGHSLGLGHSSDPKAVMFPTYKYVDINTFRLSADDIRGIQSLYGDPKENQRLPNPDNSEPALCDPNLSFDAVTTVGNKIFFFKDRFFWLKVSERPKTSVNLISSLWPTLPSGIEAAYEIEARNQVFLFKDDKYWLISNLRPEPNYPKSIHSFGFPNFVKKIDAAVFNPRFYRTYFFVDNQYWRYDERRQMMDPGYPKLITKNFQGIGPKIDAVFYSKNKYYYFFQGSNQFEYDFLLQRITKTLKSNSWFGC
The experiment in a line: P218 quenched fluorescence assay, MMP-12. Format: biochemical. The conditions noted are these: human; read-out: Potency Ki vs. MMP-12.
From the text: as §1
This assay is adapted from the one described by Knight et al., FEBS Letters, 296, 263-266 (1992) for MMP-3 and a related substrate. The rate of hydrolysis of the synthetic substrate H-MCA-Pro-Lys-Pro-Leu-Ala-Leu-DPA-Ala-Arg-NH2 (P218) by the respective MMPs is monitored fluorometrically, using an excitation wavelength of 340 nm and an emission wavelength of 395 nm, in the presence or absence of the test compounds. The substrate is made up initially in 100% DMSO to a concentration of 1×10^−2 M, then diluted in assay buffer to a final concentration of 20 μM. Test compounds (10 mM in DMSO) are diluted in assay buffer at an initial concentration of 0.3-1000 nM. These are diluted to a final concentration in the assay from 0.03 nM to 100 nM. The reaction is initiated by the addition of substrate at a final concentration of 20 μM. The total assay volume in a 96 well microtitre plate is 150 μl, Cleavage of the substrate between the Leu-Ala residues allows the fluorescence of the MCA group to be detected on a fluorometer (Cytofluor II) following excitation at 340 nm and emission at 395 nm. Change in fluorescence is continually monitored for a 40 min period.
The Ki's are calculated using the method described by Williams and Morrison, Methods in Enzymology, 63, 437-467 (1979) to measure Ki apparent for tight binding inhibitors, and is summarised as follows: [I]0/(1−vi/v0)=Ki apparent ×vi/v0+[E]0 [I]0 and [E]0 are inhibitor and enzyme concentrations, and vi/v0 are reaction velocities with/without inhibitor. [I]0 is equal to IC50 when vi is half v0, so that: IC50=0.5×[E]0+Ki apparent
IC50's are determined at each enzyme concentration using Xlfit software. Ki apparent is then determined graphically from the plot of IC50 versus MMP concentration, using the intercepts to estimate Ki apparent. Thus, intercept values at IC50=0 and [E]0=0 are equal to −2×Ki apparent and Ki apparent, respectively. IC50 values are calculated using % inhibition values at each enzyme concentration, ensuring data is taken from the linear part of the reaction rate curves. The Ki can then be calculated from the equation: Ki=Ki apparent/[…] where S=substrate concentration and Km=dissociation constant.
The assay conditions are modified as follows for each of the MMPs used:
MMP-12 (Macrophage Elastase)
[…] is isolated according to the following procedure: Human GenePool cDNA libraries from human lung, spleen, and brain were obtained from Invitrogen (Groningen, The Netherlands). HPLC-purified oligonucleotides were purchased from BioTez (Berlin, Germany), E. coli strain DH5α from Life Technologies (Heidelberg, Germany), strain BL21(DE3) from Novagen (Heidelberg, Germany). Pfu DNA-Polymerase and pBlueScriptII-KS(+) were from Stratagene (Heidelberg, Germany). DNA plasmid and DANN gel isolation kits were purchased from Qiagen (Hilden, Germany). All restriction enzymes and DNA modifying enzymes were ordered from New England Biolabs (Schwalbach, Germany). HiTrapQ (5 ml) was from Pharmacia Biotech (Freiburg, Germany). Vydac C4-RP HPLC columns (214TP54: 300 Å, 5 μm, 4.6×250 mm; 214TP1022: 300 Å, 10 μm, 22×250 mm) were from Promochem (Wesel, Germany). Fluorogenic substrate P218 was purchased from Polypeptide Laboratories (Wolfenbüttel, Germany). Ultrapure urea was purchased from Schwarz-Mann (Cleveland, Ohio). Ready-to-use NuPAGE 10% Bis-Tris Polyacrylamide SDS-PAGE gels and NuPAGE 20×MOPS running buffer were obtained from Novex (Frankfurt/Main, Germany) 10% AMPA and all other chemicals were from Sigma (Deisenhofen, Germany). […]

A further assay addresses T3, Rat MMP-13 (Rattus norvegicus, UniProt P23097).
T3 construct: Rat pro-MMP-13 was obtained according to the protocol of Roswit, Arch; Biochem. Biophys
The experiment in a line: P218 quenched fluorescence assay, MMP-13 (rat). The note with it: read-out: IC50 vs. MMP-13 (value marked *). Format: biochemical.
From the text: as §1, §2, §3, §4

The next assay addresses MMP-2 (Gelatinase A) (Homo sapiens, UniProt P08253). The experiment in a line: biochemical.

Sequence of MMP-2 (Gelatinase A) (P08253 110-660): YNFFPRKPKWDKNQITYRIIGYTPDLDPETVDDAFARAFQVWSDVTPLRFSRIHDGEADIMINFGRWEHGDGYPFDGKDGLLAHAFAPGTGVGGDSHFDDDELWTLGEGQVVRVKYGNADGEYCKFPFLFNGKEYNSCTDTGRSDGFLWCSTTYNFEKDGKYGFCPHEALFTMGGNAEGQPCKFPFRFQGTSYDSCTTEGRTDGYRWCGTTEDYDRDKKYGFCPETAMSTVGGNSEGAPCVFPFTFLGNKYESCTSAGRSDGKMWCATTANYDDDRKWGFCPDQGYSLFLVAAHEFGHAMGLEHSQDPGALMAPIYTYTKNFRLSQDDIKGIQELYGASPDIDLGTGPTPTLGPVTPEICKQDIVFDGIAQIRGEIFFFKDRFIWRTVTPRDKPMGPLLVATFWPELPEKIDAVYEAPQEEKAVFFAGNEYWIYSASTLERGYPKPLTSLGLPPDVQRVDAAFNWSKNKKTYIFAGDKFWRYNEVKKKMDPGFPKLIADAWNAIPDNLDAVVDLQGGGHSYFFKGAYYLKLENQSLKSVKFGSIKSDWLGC

`O=C(CC(CCN1C(=O)c2ccccc2C1=O)C(=O)O)c1ccc(-c2ccc(Cl)cc2)cc1` (single isomer, unassigned; (+)) [Example 4, (+)-4-(4′-Chloro[1,1′-biphenyl]4-yl)-2-[2-(1,3-dioxo-1,3-dihydro-2H-isoindol-2-yl)ethyl]-4-oxobutanoic acid]: the Ki stood at 700 pM at MMP-9 (Gelatinase B), 300 pM in assay [1] and 500 pM at MMP-2 (Gelatinase A). The IC50 at Rat MMP-13 is 296000 pM.
On to `CCOc1ccc(-c2ccc(C(=O)CC(CCN3C(=O)c4ccccc4C3=O)C(=O)O)cc2)cc1` (single isomer, unassigned; (+)) [Example 2, (+)-2-[2-(1,3-Dioxo-1,3-dihydro-2H-isoindol-2-yl)ethyl]-4-(4′-ethoxy[1,1′-biphenyl]-4-yl)-4-oxobutanoic acid], for which the Ki on MMP-9 (Gelatinase B) worked out at 1200 pM; in assay [1], 30 pM. The IC50 was 69000 pM on Rat MMP-13 and 3200 pM against MMP-2 (Gelatinase A).
